Experimental data reported in PubChem BioAssay AID1963825 (Molecular Pharmacology Branch, DTP, NCI, 2024).

Assay: Anticancer human tumor 997537-175-T-J1-PDC patient-derived colon adenocarcinoma cell line growth inhibition [POLQ]
Conditions: 997537-175-T-J1-PDC complex spheroid viability, combination with POLQ inhibitors; second compound 3.16 µM; first compound 0.1 µM; active compounds read low
In short: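 Growth inhibition in 3D: complex spheroids (tumor PDC, HUVEC, MSC) treated with POLQ inhibitor combinations; where Cmax unknown, highest tested concentration 10 microM, except SN-38 at 1 microM.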
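Further: luminescence signal used as a surrogate for viable cells; spheroids exposed to drugs for seven days before readout.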

| Structure (SMILES) | viability, T/C |
| --- | --- |
| O=c1[nH]cc(F)c(=O)[nH]1 + COC1C(OC(N)=O)C(O)C(Oc2ccc3c(O)c(NC(=O)c4ccc(O)c(CC=C(C)C)c4)c(=O)oc3c2C)OC1(C)C | 104% |
| O=c1[nH]cc(F)c(=O)[nH]1 + Nc1ccc(C#CCN(C(=O)Cc2ncc(C(F)(F)F)cc2C(F)(F)F)c2ccc(F)cc2)nn1 | 110% |
| COc1ccc([C@@H](O)c2cc(-c3ncnc4cc(N5CCOCC5)ccc34)c(F)cc2Cl)nn1 + Cc1cccc(N(C)C(=O)C2C(O)CCN2c2nc(C)cc(C(F)(F)F)c2C#N)c1 | 93.4% |

Same assay, conditions: 997537-175-T-J1-PDC complex spheroid viability, combination with POLQ inhibitors; second compound 3.16 µM; first compound 0.316 µM; active compounds read low

| Structure (SMILES) | viability, T/C |
| --- | --- |
| Nc1ccn(C2OC(CO)C(O)C2(F)F)c(=O)n1 (stereo not drawn) + Nc1ccc(C#CCN(C(=O)Cc2ncc(C(F)(F)F)cc2C(F)(F)F)c2ccc(F)cc2)nn1 | 84.7% |
| CCCS(=O)(=O)Nc1ccc(F)c(C(=O)c2c[nH]c3ncc(-c4ccc(Cl)cc4)cc23)c1F + Nc1ccc(C#CCN(C(=O)Cc2ncc(C(F)(F)F)cc2C(F)(F)F)c2ccc(F)cc2)nn1 | 89.5% |
| O=c1[nH]cc(F)c(=O)[nH]1 + COC1C(OC(N)=O)C(O)C(Oc2ccc3c(O)c(NC(=O)c4ccc(O)c(CC=C(C)C)c4)c(=O)oc3c2C)OC1(C)C | 101% |
| O=c1[nH]cc(F)c(=O)[nH]1 + Nc1ccc(C#CCN(C(=O)Cc2ncc(C(F)(F)F)cc2C(F)(F)F)c2ccc(F)cc2)nn1 | 118% |
| COc1ccc([C@@H](O)c2cc(-c3ncnc4cc(N5CCOCC5)ccc34)c(F)cc2Cl)nn1 + Cc1cccc(N(C)C(=O)C2C(O)CCN2c2nc(C)cc(C(F)(F)F)c2C#N)c1 | 110% |

Same assay, conditions: 997537-175-T-J1-PDC complex spheroid viability, combination with POLQ inhibitors; second compound 3.16 µM; first compound 1 µM; active compounds read low

| Structure (SMILES) | viability, T/C |
| --- | --- |
| Nc1ccn(C2OC(CO)C(O)C2(F)F)c(=O)n1 (stereo not drawn) + Nc1ccc(C#CCN(C(=O)Cc2ncc(C(F)(F)F)cc2C(F)(F)F)c2ccc(F)cc2)nn1 | 83.8% |
| CCCS(=O)(=O)Nc1ccc(F)c(C(=O)c2c[nH]c3ncc(-c4ccc(Cl)cc4)cc23)c1F + Nc1ccc(C#CCN(C(=O)Cc2ncc(C(F)(F)F)cc2C(F)(F)F)c2ccc(F)cc2)nn1 | 79.3% |
| O=c1[nH]cc(F)c(=O)[nH]1 + COC1C(OC(N)=O)C(O)C(Oc2ccc3c(O)c(NC(=O)c4ccc(O)c(CC=C(C)C)c4)c(=O)oc3c2C)OC1(C)C | 101% |
| O=c1[nH]cc(F)c(=O)[nH]1 + Nc1ccc(C#CCN(C(=O)Cc2ncc(C(F)(F)F)cc2C(F)(F)F)c2ccc(F)cc2)nn1 | 86.2% |
| COc1ccc([C@@H](O)c2cc(-c3ncnc4cc(N5CCOCC5)ccc34)c(F)cc2Cl)nn1 + Cc1cccc(N(C)C(=O)C2C(O)CCN2c2nc(C)cc(C(F)(F)F)c2C#N)c1 | 106% |

Same assay, conditions: 997537-175-T-J1-PDC complex spheroid viability, combination with POLQ inhibitors; second compound 3.16 µM; first compound 3.16 µM; active compounds read low

| Structure (SMILES) | viability, T/C |
| --- | --- |
| Nc1ccn(C2OC(CO)C(O)C2(F)F)c(=O)n1 (stereo not drawn) + Nc1ccc(C#CCN(C(=O)Cc2ncc(C(F)(F)F)cc2C(F)(F)F)c2ccc(F)cc2)nn1 | 70.8% |
| CCCS(=O)(=O)Nc1ccc(F)c(C(=O)c2c[nH]c3ncc(-c4ccc(Cl)cc4)cc23)c1F + Nc1ccc(C#CCN(C(=O)Cc2ncc(C(F)(F)F)cc2C(F)(F)F)c2ccc(F)cc2)nn1 | 73.1% |
| O=c1[nH]cc(F)c(=O)[nH]1 + COC1C(OC(N)=O)C(O)C(Oc2ccc3c(O)c(NC(=O)c4ccc(O)c(CC=C(C)C)c4)c(=O)oc3c2C)OC1(C)C | 103% |
| O=c1[nH]cc(F)c(=O)[nH]1 + Nc1ccc(C#CCN(C(=O)Cc2ncc(C(F)(F)F)cc2C(F)(F)F)c2ccc(F)cc2)nn1 | 88.6% |
| COc1ccc([C@@H](O)c2cc(-c3ncnc4cc(N5CCOCC5)ccc34)c(F)cc2Cl)nn1 + Cc1cccc(N(C)C(=O)C2C(O)CCN2c2nc(C)cc(C(F)(F)F)c2C#N)c1 | 88.8% |

Same assay, conditions: 997537-175-T-J1-PDC complex spheroid viability, combination with POLQ inhibitors; second compound 3.16 µM; first compound 10 µM; active compounds read low

| Structure (SMILES) | viability, T/C |
| --- | --- |
| Nc1ccn(C2OC(CO)C(O)C2(F)F)c(=O)n1 (stereo not drawn) + Nc1ccc(C#CCN(C(=O)Cc2ncc(C(F)(F)F)cc2C(F)(F)F)c2ccc(F)cc2)nn1 | 84.5% |
| CCCS(=O)(=O)Nc1ccc(F)c(C(=O)c2c[nH]c3ncc(-c4ccc(Cl)cc4)cc23)c1F + Nc1ccc(C#CCN(C(=O)Cc2ncc(C(F)(F)F)cc2C(F)(F)F)c2ccc(F)cc2)nn1 | 32.6% |
| O=c1[nH]cc(F)c(=O)[nH]1 + COC1C(OC(N)=O)C(O)C(Oc2ccc3c(O)c(NC(=O)c4ccc(O)c(CC=C(C)C)c4)c(=O)oc3c2C)OC1(C)C | 92.6% |
| O=c1[nH]cc(F)c(=O)[nH]1 + Nc1ccc(C#CCN(C(=O)Cc2ncc(C(F)(F)F)cc2C(F)(F)F)c2ccc(F)cc2)nn1 | 72.5% |
| COc1ccc([C@@H](O)c2cc(-c3ncnc4cc(N5CCOCC5)ccc34)c(F)cc2Cl)nn1 + Cc1cccc(N(C)C(=O)C2C(O)CCN2c2nc(C)cc(C(F)(F)F)c2C#N)c1 | 72.7% |

Same assay, conditions: 997537-175-T-J1-PDC complex spheroid viability, combination with POLQ inhibitors; second compound 10 µM; first compound 0.0316 µM; active compounds read low

| Structure (SMILES) | viability, T/C |
| --- | --- |
| Nc1ccn(C2OC(CO)C(O)C2(F)F)c(=O)n1 (stereo not drawn) + Nc1ccc(C#CCN(C(=O)Cc2ncc(C(F)(F)F)cc2C(F)(F)F)c2ccc(F)cc2)nn1 | 102% |
| CCCS(=O)(=O)Nc1ccc(F)c(C(=O)c2c[nH]c3ncc(-c4ccc(Cl)cc4)cc23)c1F + Nc1ccc(C#CCN(C(=O)Cc2ncc(C(F)(F)F)cc2C(F)(F)F)c2ccc(F)cc2)nn1 | 104% |
| O=c1[nH]cc(F)c(=O)[nH]1 + COC1C(OC(N)=O)C(O)C(Oc2ccc3c(O)c(NC(=O)c4ccc(O)c(CC=C(C)C)c4)c(=O)oc3c2C)OC1(C)C | 95.8% |
| O=c1[nH]cc(F)c(=O)[nH]1 + Nc1ccc(C#CCN(C(=O)Cc2ncc(C(F)(F)F)cc2C(F)(F)F)c2ccc(F)cc2)nn1 | 105% |
| COc1ccc([C@@H](O)c2cc(-c3ncnc4cc(N5CCOCC5)ccc34)c(F)cc2Cl)nn1 + Cc1cccc(N(C)C(=O)C2C(O)CCN2c2nc(C)cc(C(F)(F)F)c2C#N)c1 | 101% |

Same assay, conditions: 997537-175-T-J1-PDC complex spheroid viability, combination with POLQ inhibitors; second compound 10 µM; first compound 0.1 µM; active compounds read low

| Structure (SMILES) | viability, T/C |
| --- | --- |
| Nc1ccn(C2OC(CO)C(O)C2(F)F)c(=O)n1 (stereo not drawn) + Nc1ccc(C#CCN(C(=O)Cc2ncc(C(F)(F)F)cc2C(F)(F)F)c2ccc(F)cc2)nn1 | 113% |
| CCCS(=O)(=O)Nc1ccc(F)c(C(=O)c2c[nH]c3ncc(-c4ccc(Cl)cc4)cc23)c1F + Nc1ccc(C#CCN(C(=O)Cc2ncc(C(F)(F)F)cc2C(F)(F)F)c2ccc(F)cc2)nn1 | 83.5% |
| O=c1[nH]cc(F)c(=O)[nH]1 + COC1C(OC(N)=O)C(O)C(Oc2ccc3c(O)c(NC(=O)c4ccc(O)c(CC=C(C)C)c4)c(=O)oc3c2C)OC1(C)C | 98.2% |
| O=c1[nH]cc(F)c(=O)[nH]1 + Nc1ccc(C#CCN(C(=O)Cc2ncc(C(F)(F)F)cc2C(F)(F)F)c2ccc(F)cc2)nn1 | 94.5% |
| COc1ccc([C@@H](O)c2cc(-c3ncnc4cc(N5CCOCC5)ccc34)c(F)cc2Cl)nn1 + Cc1cccc(N(C)C(=O)C2C(O)CCN2c2nc(C)cc(C(F)(F)F)c2C#N)c1 | 109% |

Same assay, conditions: 997537-175-T-J1-PDC complex spheroid viability, combination with POLQ inhibitors; second compound 10 µM; first compound 0.316 µM; active compounds read low

| Structure (SMILES) | viability, T/C |
| --- | --- |
| Nc1ccn(C2OC(CO)C(O)C2(F)F)c(=O)n1 (stereo not drawn) + Nc1ccc(C#CCN(C(=O)Cc2ncc(C(F)(F)F)cc2C(F)(F)F)c2ccc(F)cc2)nn1 | 89% |
| CCCS(=O)(=O)Nc1ccc(F)c(C(=O)c2c[nH]c3ncc(-c4ccc(Cl)cc4)cc23)c1F + Nc1ccc(C#CCN(C(=O)Cc2ncc(C(F)(F)F)cc2C(F)(F)F)c2ccc(F)cc2)nn1 | 94% |
| O=c1[nH]cc(F)c(=O)[nH]1 + COC1C(OC(N)=O)C(O)C(Oc2ccc3c(O)c(NC(=O)c4ccc(O)c(CC=C(C)C)c4)c(=O)oc3c2C)OC1(C)C | 95.3% |
| O=c1[nH]cc(F)c(=O)[nH]1 + Nc1ccc(C#CCN(C(=O)Cc2ncc(C(F)(F)F)cc2C(F)(F)F)c2ccc(F)cc2)nn1 | 103% |
| COc1ccc([C@@H](O)c2cc(-c3ncnc4cc(N5CCOCC5)ccc34)c(F)cc2Cl)nn1 + Cc1cccc(N(C)C(=O)C2C(O)CCN2c2nc(C)cc(C(F)(F)F)c2C#N)c1 | 110% |

Same assay, conditions: 997537-175-T-J1-PDC complex spheroid viability, combination with POLQ inhibitors; second compound 10 µM; first compound 1 µM; active compounds read low

| Structure (SMILES) | viability, T/C |
| --- | --- |
| Nc1ccn(C2OC(CO)C(O)C2(F)F)c(=O)n1 (stereo not drawn) + Nc1ccc(C#CCN(C(=O)Cc2ncc(C(F)(F)F)cc2C(F)(F)F)c2ccc(F)cc2)nn1 | 94.1% |
| CCCS(=O)(=O)Nc1ccc(F)c(C(=O)c2c[nH]c3ncc(-c4ccc(Cl)cc4)cc23)c1F + Nc1ccc(C#CCN(C(=O)Cc2ncc(C(F)(F)F)cc2C(F)(F)F)c2ccc(F)cc2)nn1 | 77.5% |
| O=c1[nH]cc(F)c(=O)[nH]1 + COC1C(OC(N)=O)C(O)C(Oc2ccc3c(O)c(NC(=O)c4ccc(O)c(CC=C(C)C)c4)c(=O)oc3c2C)OC1(C)C | 84.2% |
| O=c1[nH]cc(F)c(=O)[nH]1 + Nc1ccc(C#CCN(C(=O)Cc2ncc(C(F)(F)F)cc2C(F)(F)F)c2ccc(F)cc2)nn1 | 91.2% |
| COc1ccc([C@@H](O)c2cc(-c3ncnc4cc(N5CCOCC5)ccc34)c(F)cc2Cl)nn1 + Cc1cccc(N(C)C(=O)C2C(O)CCN2c2nc(C)cc(C(F)(F)F)c2C#N)c1 | 112% |

Same assay, conditions: 997537-175-T-J1-PDC complex spheroid viability, combination with POLQ inhibitors; second compound 10 µM; first compound 3.16 µM; active compounds read low

| Structure (SMILES) | viability, T/C |
| --- | --- |
| Nc1ccn(C2OC(CO)C(O)C2(F)F)c(=O)n1 (stereo not drawn) + Nc1ccc(C#CCN(C(=O)Cc2ncc(C(F)(F)F)cc2C(F)(F)F)c2ccc(F)cc2)nn1 | 89.7% |
| CCCS(=O)(=O)Nc1ccc(F)c(C(=O)c2c[nH]c3ncc(-c4ccc(Cl)cc4)cc23)c1F + Nc1ccc(C#CCN(C(=O)Cc2ncc(C(F)(F)F)cc2C(F)(F)F)c2ccc(F)cc2)nn1 | 71.4% |
| O=c1[nH]cc(F)c(=O)[nH]1 + COC1C(OC(N)=O)C(O)C(Oc2ccc3c(O)c(NC(=O)c4ccc(O)c(CC=C(C)C)c4)c(=O)oc3c2C)OC1(C)C | 96.9% |
| O=c1[nH]cc(F)c(=O)[nH]1 + Nc1ccc(C#CCN(C(=O)Cc2ncc(C(F)(F)F)cc2C(F)(F)F)c2ccc(F)cc2)nn1 | 84.1% |
| COc1ccc([C@@H](O)c2cc(-c3ncnc4cc(N5CCOCC5)ccc34)c(F)cc2Cl)nn1 + Cc1cccc(N(C)C(=O)C2C(O)CCN2c2nc(C)cc(C(F)(F)F)c2C#N)c1 | 107% |

Same assay, conditions: 997537-175-T-J1-PDC complex spheroid viability, combination with POLQ inhibitors; second compound 10 µM; first compound 10 µM; active compounds read low

| Structure (SMILES) | viability, T/C |
| --- | --- |
| Nc1ccn(C2OC(CO)C(O)C2(F)F)c(=O)n1 (stereo not drawn) + Nc1ccc(C#CCN(C(=O)Cc2ncc(C(F)(F)F)cc2C(F)(F)F)c2ccc(F)cc2)nn1 | 74.2% |
| CCCS(=O)(=O)Nc1ccc(F)c(C(=O)c2c[nH]c3ncc(-c4ccc(Cl)cc4)cc23)c1F + Nc1ccc(C#CCN(C(=O)Cc2ncc(C(F)(F)F)cc2C(F)(F)F)c2ccc(F)cc2)nn1 | 39.9% |
| O=c1[nH]cc(F)c(=O)[nH]1 + COC1C(OC(N)=O)C(O)C(Oc2ccc3c(O)c(NC(=O)c4ccc(O)c(CC=C(C)C)c4)c(=O)oc3c2C)OC1(C)C | 85.3% |
| O=c1[nH]cc(F)c(=O)[nH]1 + Nc1ccc(C#CCN(C(=O)Cc2ncc(C(F)(F)F)cc2C(F)(F)F)c2ccc(F)cc2)nn1 | 81% |
| COc1ccc([C@@H](O)c2cc(-c3ncnc4cc(N5CCOCC5)ccc34)c(F)cc2Cl)nn1 + Cc1cccc(N(C)C(=O)C2C(O)CCN2c2nc(C)cc(C(F)(F)F)c2C#N)c1 | 69.8% |
